# Literature values as cited in patent US20060281715A1, “Phosphates of secondary alcohols” (priority 2003, published 2006).
# Legend:
# [1] = test system: noradrenaline uptake; conditions: enantiomers of venlafaxine
# [2] = major metabolite
# [3] = oral administration
# [4] = test system: seratonin uptake; conditions: enantiomers of venlafaxine
compound,measurement,setting,value
COc1ccc(C(CN(C)C)C2(O)CCCCC2)cc1 (stereo not drawn) [Venlafaxine],time to mean peak plasma concentrations,following single 25 to 150 mg doses,approximately 2.4 hours
"COc1ccc(C(CN(C)C)C2(O)CCCCC2)cc1 (single isomer, unassigned) [R-enantiomer]","potency as inhibitor of noradrenaline uptake, compared with other enantiomer",[1],more potent
CN(C)CC(c1ccc(O)cc1)C1(O)CCCCC1 (stereo not drawn) [O-desmethylvenlafaxine],potency compared with venlafaxine,[2],equally potent
same,half-life,calculated,11 h
CC[C@H](C)C(=O)O[C@H]1C[C@H](O)C=C2C=C[C@H](C)[C@H](CC[C@@H](O)C[C@@H](O)CC(=O)O)[C@H]21 [Pravastatin],time to peak plasma levels,[3],about an hour and a half
"COc1ccc(C(CN(C)C)C2(O)CCCCC2)cc1 (single isomer, unassigned) [S-enantiomer]","potency as inhibitor of seratonin uptake, compared with other enantiomer",[4],more potent
